Assays:
[1] = molecular target: T1, PKD1 (Homo sapiens, UniProt Q15139); settings: PKD; cited from earlier work
T1 sequence (Q15139 1-912): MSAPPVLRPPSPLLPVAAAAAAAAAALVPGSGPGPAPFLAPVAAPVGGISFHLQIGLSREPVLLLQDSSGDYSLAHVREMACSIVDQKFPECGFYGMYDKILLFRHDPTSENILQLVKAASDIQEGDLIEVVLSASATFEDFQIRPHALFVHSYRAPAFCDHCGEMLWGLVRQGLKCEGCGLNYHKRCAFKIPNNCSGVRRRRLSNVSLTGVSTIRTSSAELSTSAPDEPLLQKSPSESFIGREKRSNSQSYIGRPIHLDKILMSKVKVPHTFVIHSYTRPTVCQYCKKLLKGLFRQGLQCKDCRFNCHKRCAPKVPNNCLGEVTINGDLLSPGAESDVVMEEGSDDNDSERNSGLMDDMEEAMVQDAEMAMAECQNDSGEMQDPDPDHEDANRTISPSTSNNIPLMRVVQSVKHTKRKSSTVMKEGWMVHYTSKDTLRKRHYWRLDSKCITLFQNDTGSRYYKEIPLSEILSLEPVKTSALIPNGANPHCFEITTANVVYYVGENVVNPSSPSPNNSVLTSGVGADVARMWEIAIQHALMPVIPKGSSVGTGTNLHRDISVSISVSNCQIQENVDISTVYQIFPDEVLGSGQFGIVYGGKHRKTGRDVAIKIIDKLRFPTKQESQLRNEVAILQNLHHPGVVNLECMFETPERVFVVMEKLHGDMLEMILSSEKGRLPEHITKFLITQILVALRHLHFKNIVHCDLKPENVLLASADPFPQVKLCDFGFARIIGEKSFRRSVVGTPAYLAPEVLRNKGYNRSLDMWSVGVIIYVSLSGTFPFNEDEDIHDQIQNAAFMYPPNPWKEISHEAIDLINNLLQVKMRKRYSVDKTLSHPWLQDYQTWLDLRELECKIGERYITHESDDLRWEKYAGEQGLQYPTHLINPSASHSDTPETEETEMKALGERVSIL

[2] = molecular target: PKCβI (Homo sapiens, UniProt P05771); experiment: Selectivity assay against PKCβI; type: biochemical; settings: selectivity counterscreen
Chain of PKCβI (P05771 whole entry): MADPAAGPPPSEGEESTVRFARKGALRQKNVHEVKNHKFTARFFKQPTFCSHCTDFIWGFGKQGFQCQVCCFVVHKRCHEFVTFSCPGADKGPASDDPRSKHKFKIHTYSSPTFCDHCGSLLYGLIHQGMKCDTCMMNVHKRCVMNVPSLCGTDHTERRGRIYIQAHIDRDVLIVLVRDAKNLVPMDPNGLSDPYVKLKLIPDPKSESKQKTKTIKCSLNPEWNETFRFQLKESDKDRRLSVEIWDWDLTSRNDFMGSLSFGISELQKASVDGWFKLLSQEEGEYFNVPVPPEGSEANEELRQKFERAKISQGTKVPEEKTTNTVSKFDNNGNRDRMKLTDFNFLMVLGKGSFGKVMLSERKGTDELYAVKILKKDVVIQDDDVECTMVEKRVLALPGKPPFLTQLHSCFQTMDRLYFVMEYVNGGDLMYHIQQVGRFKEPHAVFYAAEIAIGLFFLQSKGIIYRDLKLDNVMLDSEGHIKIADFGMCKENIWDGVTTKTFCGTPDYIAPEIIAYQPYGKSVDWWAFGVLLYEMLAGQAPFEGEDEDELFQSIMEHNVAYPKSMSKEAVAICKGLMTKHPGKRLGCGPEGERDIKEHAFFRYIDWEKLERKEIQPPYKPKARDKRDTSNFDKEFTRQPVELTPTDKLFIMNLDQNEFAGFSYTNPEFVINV

[3] = molecular target: PKCδ (Homo sapiens, UniProt Q05655); experiment: Selectivity assay against PKCδ; type: biochemical; settings: selectivity counterscreen
Chain of PKCδ (Q05655 whole entry): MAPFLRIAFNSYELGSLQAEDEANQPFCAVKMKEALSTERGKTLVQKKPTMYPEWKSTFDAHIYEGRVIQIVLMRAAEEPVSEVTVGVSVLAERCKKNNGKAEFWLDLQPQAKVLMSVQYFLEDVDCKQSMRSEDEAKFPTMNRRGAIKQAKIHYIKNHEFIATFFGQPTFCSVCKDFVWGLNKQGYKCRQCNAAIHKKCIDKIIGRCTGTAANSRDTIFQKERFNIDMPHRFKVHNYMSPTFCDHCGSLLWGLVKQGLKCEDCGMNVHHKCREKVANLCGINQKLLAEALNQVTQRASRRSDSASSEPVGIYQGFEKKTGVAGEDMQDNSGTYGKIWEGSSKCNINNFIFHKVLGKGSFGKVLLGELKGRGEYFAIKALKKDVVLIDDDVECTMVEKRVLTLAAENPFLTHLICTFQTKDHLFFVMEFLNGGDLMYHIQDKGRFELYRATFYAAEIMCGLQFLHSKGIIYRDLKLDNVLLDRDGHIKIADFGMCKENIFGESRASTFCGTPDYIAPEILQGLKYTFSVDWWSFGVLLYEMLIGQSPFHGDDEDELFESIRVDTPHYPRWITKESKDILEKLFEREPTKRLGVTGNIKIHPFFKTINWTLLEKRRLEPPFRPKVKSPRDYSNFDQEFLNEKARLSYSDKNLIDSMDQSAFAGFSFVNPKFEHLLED

[4] = molecular target: PKCα (Homo sapiens, UniProt P17252); experiment: Selectivity assay against PKCα; type: biochemical; settings: selectivity counterscreen
[5] = in vivo studies; cited from earlier work
[6] = molecular target: T1, PKD1; experiment: PKD1 radiometric kinase activity assay; type: biochemical; settings: ratio of in vitro IC50 vs CID755673
[7] = molecular target: T2, PKD1 autophosphorylation at S916 in LNCaP prostate cancer cells (Homo sapiens, UniProt Q15139); experiment: Cellular PKD1 autophosphorylation at S916; type: cell-based; settings: vs CID755673
T2 sequence (Q15139 1-912): T1 sequence (Q15139 1-912)

Compound	mode of inhibition (ATP competition) [1]	activity against PKCβI [2]	activity against PKCδ [3]	activity against PKCα [4]	plasma half-life [5]	improvement in PKD1 in vitro potency over CID755673 [6]	improvement (lowering) of cellular IC50 compared to CID755673 [7]
O=C1NCCCc2c1oc1ccc(O)cc21 [CID755673]	not an ATP-competitive inhibitor	–	–	–	–	–	–
O=C1NCCCc2c1[nH]c1ccc(O)cc21 [kb-NB123-57]	–	did not detect significant activities	did not detect significant activities	did not detect significant activities	–	–	–
O=C1NCCSc2c1sc1ccc(O)cc21 [kb-NB142-70]	–	–	–	–	short plasma half-life	~7 fold	5 fold
COc1ncc2sc3c(c2n1)SCCNC3=O [kmg-NB4-23]	–	did not detect significant activities	did not detect significant activities	did not detect significant activities	–	–	–
[N-]=[N+]=Nc1ccc2sc3c(c2c1)SCCNC3=O [mcf292-08]	–	did not detect significant activities	did not detect significant activities	did not detect significant activities	–	–	–
